Some results are limits rather than exact numbers.

The subject of data set [1] is Mouse colon cancer MC38 cells. Briefly: In vivo efficacy, MC38 model in BALB/c mice, single drug and PD-1 combination. Conditions: MC-38 model, single drug, 50 mg/kg, QD (21 days), PO. The protocol:
Female BALB/c mice (aged 6 weeks, 18-22 g) were provided by Vital River Laboratory Animal Technology Co., Ltd. (China) and used one week after quarantine and acclimation. All animals were kept in a room at 23±2° C. with a relative humidity of 50±5%, artificial lighting was provided from 08:00 to 20:00 every day, and the air was exchanged 13-18 times per hour.
After being subcultured, the cells were collected when they reached the desired amount. The BALB/c mice were subcutaneously injected with 1×10^6 MC38 cells on the right side to form tumors. […] Administration was then started. Tumor volumes were measured with a caliper on day 3, day 7, day 10, day 14, day 17, and day 21 after the administration.
The toxicity of the compounds was evaluated according to the body weight and state of the mice.

Data set [2] concerns PC3 cells. Put plainly: Inhibition of PC3 cell low adsorption (adherent cell count, 4 h). The settings on record: Homo sapiens, PC-3; 4 h treatment; read-out: IC50 against PC3 cell low adsorption. In kind it is cell-based. The protocol:
PC3 cells were seeded at 8000 cells/well. 4 h after the cells were treated with a compound, the number of adherent cells was counted. The inhibition percentage and IC50 of the compound were calculated compared to the DMSO group.

Data set [3] concerns Human pancreatic cancer Mia PaCa-2 cells. Put plainly: In vivo efficacy, Mia PaCa-2 xenograft in nude mice. Conditions: MiaPaCa-2 model, 25 mg/kg PO QD 21 days. Also noted: species or system mouse. The protocol: The groups were as follows: 1) a solvent control group, 8 mice; and 2) a control compound group and a test compound group, 8 mice each. The mice in the solvent control group were intragastrically administered 0.5% CMC-Na twice a day; the mice in the compound groups were intragastrically administered 0.50% MC-Tween-80 suspension once a day. On Tuesday and Thursday each week, tumor volumes and body weight of the mice were measured, and the nude mice were sacrificed on day 21 after the administration. […] The toxicity of the compounds was evaluated according to the body weight of the mice.

The subject of data set [4] is Human prostate cancer PC3 cells. Briefly: In vivo efficacy, PC3 xenograft in nude mice. On the set-up: species or system mouse. The settings on record: PC-3 model, 25 mg/kg, QD (21 days), PO. The protocol: The groups were as follows: 1) a solvent control group, 8 mice; and 2) a control compound group and a test compound group, 8 mice each. The mice in the solvent control group were intragastrically administered 0.5% CMC-Na twice a day; the mice in the compound groups were intragastrically administered 0.5% MC-Tween-80 suspension once a day. On Tuesday and Thursday each week, tumor volumes and body weight of the mice were measured, and the nude mice were sacrificed on day 21 after the administration. […] The toxicity of the compounds was evaluated according to the body weight of the mice.

The test system of data set [5] is PC3 cells. Briefly: PC3 cell proliferation, 3D activity assay (3D culture, 14 days). The class given is cell-based, human. The settings on record: Homo sapiens, PC-3, 336 h, read-out: 3D inhibitory activity against PC3 cells IC50.
Data set [6] in a line: In vivo pharmacokinetic experiment in CD-1 mice. Conditions: mouse, plasma, CD-1 female mice; for Vd: read-out: Vdss. The protocol: […] The mice were fasted for at least 12 h before the administration and given food 4 h after the administration, and they were given ad libitum access to water during the experiment.
On the day of the experiment, animals in the intravenous group were given the corresponding compound by single injection via the tail vein at an administration volume of 10 mL/kg; and animals in the oral group were given the corresponding compound by single intragastric injection at an administration volume of 10 mL/kg. The animals were weighed before administration, and the administration volume was calculated according to the body weight. The sample collection time points were 0.083 h, 0.167 h, 0.5 h, 1 h, 2 h, 4 h, 8 h, and 24 h. About 200 μL of whole blood was collected through the orbital venous plexus at each time point and used to prepare plasma for concentration determination by high-performance liquid chromatography-tandem mass spectrometry (LC-MS/MS). The plasma concentrations were processed using a non-compartmental model of Winnolin pharmacokinetic software, and the pharmacokinetic parameters were calculated using a linear-log trapezoidal method.

In data set [7] the test system is PC3 cells. Put plainly: PC3 cell proliferation, 2D activity assay (Cell Titer-Lumi, 72 h). The class given is cell-based, human. The settings on record: Homo sapiens, PC-3, read-out: 2D inhibitory activity against PC3 cells IC50.
For data set [8], the target named is FAK recombinant protein (Homo sapiens (Human), UniProt Q05397). Briefly: Inhibitory activity against FAK enzyme (HTRF, TK substrate). The class given is biochemical. The protocol:
A compound serially diluted with DMSO was mixed with a FAK recombinant protein. After the mixture was left to stand at room temperature for 10 min, a biotin-labeled TK substrate (TK) and ATP were added. […] The inhibition percentage and IC50 of the compound were calculated compared to the DMSO control group.
On the technique in general: In TR-FRET formats the signal depends on donor and acceptor labels being close together.

Data set [9] has as its system phosphorylation at the FAK 397 site. Briefly: Inhibition of Y397 phosphorylation in PC3 cells (ELISA). The class given is cell-based. Conditions: Homo sapiens, PC-3, 3 h treatment, read-out: IC50 against Y397 phosphorylation. The protocol: PC3 cells were seeded at 8000 cells/well. […] The inhibition percentage and IC50 of the compound were calculated compared to the DMSO group.
A general note: ELISA stands for enzyme-linked immunosorbent assay.

Chain of FAK recombinant protein (Q05397 whole entry): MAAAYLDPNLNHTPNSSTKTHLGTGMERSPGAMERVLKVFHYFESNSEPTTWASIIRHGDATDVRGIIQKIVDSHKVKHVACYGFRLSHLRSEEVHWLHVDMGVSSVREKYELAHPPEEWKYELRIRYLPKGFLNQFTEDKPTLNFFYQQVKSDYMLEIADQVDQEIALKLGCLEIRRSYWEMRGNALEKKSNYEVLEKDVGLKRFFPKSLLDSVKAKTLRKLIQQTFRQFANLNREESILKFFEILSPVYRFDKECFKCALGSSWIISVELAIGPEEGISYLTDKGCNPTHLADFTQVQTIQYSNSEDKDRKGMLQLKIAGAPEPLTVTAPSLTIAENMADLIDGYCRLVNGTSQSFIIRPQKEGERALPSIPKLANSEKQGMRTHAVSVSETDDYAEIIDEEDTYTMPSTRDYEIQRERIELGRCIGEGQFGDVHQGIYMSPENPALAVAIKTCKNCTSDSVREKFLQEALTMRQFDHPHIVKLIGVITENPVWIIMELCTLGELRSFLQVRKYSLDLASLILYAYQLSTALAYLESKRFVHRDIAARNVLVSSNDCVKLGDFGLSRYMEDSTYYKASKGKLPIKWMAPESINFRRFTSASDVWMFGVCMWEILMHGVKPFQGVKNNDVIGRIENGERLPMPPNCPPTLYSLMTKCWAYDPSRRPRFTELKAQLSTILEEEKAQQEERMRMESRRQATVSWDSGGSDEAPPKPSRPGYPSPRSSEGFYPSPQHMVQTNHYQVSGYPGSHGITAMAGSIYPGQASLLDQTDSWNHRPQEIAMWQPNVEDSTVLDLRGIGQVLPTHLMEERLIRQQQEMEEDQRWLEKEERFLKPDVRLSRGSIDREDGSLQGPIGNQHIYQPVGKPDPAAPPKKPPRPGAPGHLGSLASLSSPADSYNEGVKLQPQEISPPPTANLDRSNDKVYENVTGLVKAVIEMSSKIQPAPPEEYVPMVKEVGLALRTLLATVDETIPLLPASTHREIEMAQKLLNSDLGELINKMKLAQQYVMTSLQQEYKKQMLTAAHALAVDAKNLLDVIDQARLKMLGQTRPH

Broadly, the IC50 is the concentration that gives 50% inhibition. In general, AUC(0-t) refers to the area under the concentration-time curve up to a stated or last time point. Low readings indicate less exposure, high ones more exposure. As a reminder, the clearance is a measure of how efficiently the substance is removed, as volume per time. Read a low clearance as inefficient removal. A word on the half-life: it is the time in which the quantity being followed falls by half. Read a high half-life as slow decline. By Cmax is commonly meant the peak of the concentration-time curve. For orientation: Tmax means the time from dosing to the highest level. What is called bioavailability is dose-corrected exposure relative to a reference, in per cent. As for `COc1cc(N2CC3(CCN(C)CC3)C2)ccc1Nc1ncc(C(F)(F)F)c(Oc2cccc3c2C(=O)N(C)C32CC2)n1` [Compound 79], the “TGI(%)” value in [1] stood at 69.21%. Further, the IC50 in data set [2] amounted to 1.09 nM. Also, the “TGI(%)” value in data set [3] was found to be 89.35%. Moreover, in data set [4], the “TGI(%)” value was determined as 88.33%. Besides, the IC50 in data set [5] came out at 0.32 nM. For the same compound, in data set [6] (iv, injection (1 mg/kg)), the area under the curve AUC(0-t) was found to be 883 ng·h/mL, the clearance stood at 18.9 mL/min/kg, the half-life is 3.48 h and the Vd was 5.14 L/kg. For the same compound, in data set [6] (oral administration, 5 mg/kg), the AUC(0-t) stood at 1760 ng·h/mL, the Cmax stood at 201 ng/mL, the Tmax was found to be 4 h and the bioavailability was determined as 40%. For the same compound, the half-life in data set [6] (oral administration, 5 mg/kg) is 3.06 h. Moreover, the IC50 in data set [7] is greater than 10000 nM. Also, the IC50 in data set [8] is less than 20 nM.

For the compound `COc1cc(N2CCN(C)CC2)ccc1Nc1ncc(C(F)(F)F)c(Oc2cccc3c2C(=O)N(C)C32CC2)n1` [Compound 73], in [2], the IC50 amounted to 5.01 nM. Further, the “TGI(%)” value in data set [4] amounted to 74.07%. In addition, the IC50 in data set [5] was found to be 1.99 nM. Further, the IC50 in data set [9] worked out at 0.028 nM. In [6] (iv, injection (1 mg/kg)), the AUC(0-t) was found to be 414 ng·h/mL, the clearance came to 40.2 mL/min/kg, the half-life was 1.93 h and the Vd came out at 5.67 L/kg. Also, in data set [6] (oral administration (10 mg/kg)), the exposure AUC(0-t) is 2890 ng·h/mL, the Cmax amounted to 624 ng/mL, the Tmax is 0.5 h and the bioavailability was found to be 59.3%. In data set [6] (oral administration (10 mg/kg)), this compound showed a half-life of 3.32 h. Further, the IC50 in data set [7] is greater than 10000 nM. In [8], the half-maximal inhibitory concentration (IC50) was less than 20 nM.

For `COc1cc(C(=O)NC2CCN(C)CC2)c(F)cc1Nc1ncc(C(F)(F)F)c(Oc2cccc3c2C(=O)N(C)C32CC2)n1` [Compound 4], the IC50 in data set [2] is 6.87 nM; in [5], 2.01 nM; in data set [9], 0.025 nM; in data set [7], greater than 2000 nM; in [8], less than 20 nM. Moreover, the “TGI(%)” value in data set [3] was found to be 69.02%; in data set [4], 61.48%. Further, the AUC(0-t) in data set [6] (iv, injection (1 mg/kg)) is 489 ng·h/mL; in data set [6] (oral administration (10 mg/kg)), 2090 ng·h/mL. In data set [6] (iv, injection (1 mg/kg)), this compound displayed a clearance of 34 mL/min/kg. The compound further gave a half-life in data set [6] (iv, injection (1 mg/kg)) of 1.78 h. The Vd in data set [6] (iv, injection (1 mg/kg)) was 4.35 L/kg. In data set [6] (oral administration (10 mg/kg)), the highest concentration (Cmax) was determined as 361 ng/mL. Besides, the Tmax in [6] (oral administration (10 mg/kg)) was found to be 4 h. In addition, in data set [6] (oral administration (10 mg/kg)), the bioavailability came to 42.6%.

In the case of `COc1cc(N2CC3(CCN(C)CC3)C2)ccc1Nc1ncc(Cl)c(Oc2cccc3c2C(=O)N(C)C32CC2)n1` [Compound 136, 4′-((5-chloro-2-((2-methoxy-4-(7-methyl-2,7-diazaspiro[3.5]nonan-2-yl)phenyl)amino)pyrimidin-4-yl)oxy)-2′-methylspiro[cyclopropane-1,1′-isoindolin]-3′-one], the “TGI(%)” value is on record as 32.53% in [1], 89.46% in [3] and 76.67% in data set [4]. Further, the IC50 in [2] was 1.16 nM; in [5], 0.6 nM; in [9], 0.22 nM; in data set [7], greater than 10000 nM; in [8], less than 20 nM. Also, the AUC(0-t) in data set [6] (iv, injection (1 mg/kg)) came to 1110 ng·h/mL; in [6] (oral administration (10 mg/kg)) it was 8910 ng·h/mL. Besides, the clearance in data set [6] (iv, injection (1 mg/kg)) worked out at 15 mL/min/kg. Besides, the half-life in [6] (iv, injection (1 mg/kg)) is 3.31 h; in [6] (oral administration (10 mg/kg)), 2.2 h. Besides, in data set [6] (iv, injection (1 mg/kg)), the Vd is 4.15 L/kg. The compound also gave a peak concentration (Cmax) in data set [6] (oral administration (10 mg/kg)) of 907 ng/mL. In addition, in [6] (oral administration (10 mg/kg)), the Tmax is 2 h. Also, the bioavailability in data set [6] (oral administration (10 mg/kg)) was determined as 80.2%.

In the case of `COc1cc(N2CC3(CCN(C)CC3)C2)c(F)cc1Nc1ncc(Cl)c(Oc2cccc3c2C(=O)N(C)C32CC2)n1` [Compound 137, 4′-((5-chloro-2-((5-fluoro-2-methoxy-4-(7-methyl-2,7-diazaspiro[3.5]nonan-2-yl)phenyl)amino)pyrimidin-4-yl)oxy)-2′-methylspiro[cyclopropane-1,1′-isoindolin]-3′-one], the IC50 in [2] is 1.71 nM. For the same compound, in [3], the “TGI(%)” value amounted to 87.68%. Further, in [4], the “TGI(%)” value was determined as 76.39%. Further, in data set [5], the concentration for half-maximal inhibition (IC50) stood at 1.4 nM. In addition, the IC50 in data set [9] was found to be 0.08 nM. Further, in data set [6] (iv, injection (1 mg/kg)), the AUC(0-t) is 1390 ng·h/mL, the clearance is 12 mL/min/kg, the half-life was 3.67 h and the Vd came to 3.71 L/kg. In data set [6] (oral administration (10 mg/kg)), the AUC(0-t) was 12400 ng·h/mL, the peak level (Cmax) was 810 ng/mL, the Tmax worked out at 4 h and the bioavailability came out at 89.4%. The half-life in [6] (oral administration (10 mg/kg)) is 4.19 h. For the same compound, in data set [7], the IC50 was greater than 10000 nM. In [8], the IC50 is less than 20 nM.

Turning to `COc1cc(N2CC3(CCN(C)CC3)C2)c(F)cc1Nc1ncc(C(F)(F)F)c(Oc2cccc3c2C(=O)N(C)C32CC2)n1` [Compound 120, 4′-((2-((5-fluoro-2-methoxy-4-(7-methyl-2,7-diazaspiro[3.5]nonan-2-yl)phenyl)amino)-5-(trifluoromethyl)pyrimidin-4-yl)oxy)-2′-methylspiro[cyclopropane-1,1′-isoindolin]-3′-one], in [1], the “TGI(%)” value is 66.33%. The IC50 in data set [2] came out at 1.46 nM. In addition, in [4], the “TGI(%)” value was found to be 90.83%. In addition, the half-inhibitory concentration (IC50) in [5] was found to be 0.46 nM. Moreover, the IC50 in data set [9] was less than 0.01 nM. Further, in [6] (iv, injection (1 mg/kg)), the area under the curve AUC(0-t) came to 850 ng·h/mL, the clearance was determined as 19.6 mL/min/kg, the half-life is 4.69 h and the Vd is 6.15 L/kg. Besides, in data set [6] (oral administration (10 mg/kg)), the AUC(0-t) is 6120 ng·h/mL, the Cmax stood at 522 ng/mL, the Tmax turned out to be 4 h and the bioavailability came to 72%. The compound also showed a half-life in data set [6] (oral administration (10 mg/kg)) of 5.26 h. In addition, in data set [7], the IC50 is greater than 2000 nM. In addition, the IC50 in data set [8] is less than 20 nM.

The values are drawn from patent US20250154134A1, “COMPOUND AS FAK INHIBITOR AND USE THEREOF” (WIGEN BIOMEDICINE TECHNOLOGY (SHANGHAI) CO., LTD., priority 2022, published 2025).
